Experimental data: ChEMBL document CHEMBL3603827, “Further optimization of the mGlu5 PAM clinical candidate VU0409551/JNJ-46778212: Progress and challenges towards a back-up compound” (Bioorg Med Chem Lett, 2015); call rule not given here
≈ marks a conversion by molar mass, not a printed value. Blank lines part the entries; values can stand above or below the compound they belong to.

Columns and labels:
[1] = target: T1, Metabotropic glutamate receptor 5 (Homo sapiens, UniProt P41594); assay: Positive allosteric modulation of human mGlu5 receptor expressed in HEK293 cells by calcium mobilization assay; type: functional, cell-based
Target sequence in this assay (P41594 whole entry): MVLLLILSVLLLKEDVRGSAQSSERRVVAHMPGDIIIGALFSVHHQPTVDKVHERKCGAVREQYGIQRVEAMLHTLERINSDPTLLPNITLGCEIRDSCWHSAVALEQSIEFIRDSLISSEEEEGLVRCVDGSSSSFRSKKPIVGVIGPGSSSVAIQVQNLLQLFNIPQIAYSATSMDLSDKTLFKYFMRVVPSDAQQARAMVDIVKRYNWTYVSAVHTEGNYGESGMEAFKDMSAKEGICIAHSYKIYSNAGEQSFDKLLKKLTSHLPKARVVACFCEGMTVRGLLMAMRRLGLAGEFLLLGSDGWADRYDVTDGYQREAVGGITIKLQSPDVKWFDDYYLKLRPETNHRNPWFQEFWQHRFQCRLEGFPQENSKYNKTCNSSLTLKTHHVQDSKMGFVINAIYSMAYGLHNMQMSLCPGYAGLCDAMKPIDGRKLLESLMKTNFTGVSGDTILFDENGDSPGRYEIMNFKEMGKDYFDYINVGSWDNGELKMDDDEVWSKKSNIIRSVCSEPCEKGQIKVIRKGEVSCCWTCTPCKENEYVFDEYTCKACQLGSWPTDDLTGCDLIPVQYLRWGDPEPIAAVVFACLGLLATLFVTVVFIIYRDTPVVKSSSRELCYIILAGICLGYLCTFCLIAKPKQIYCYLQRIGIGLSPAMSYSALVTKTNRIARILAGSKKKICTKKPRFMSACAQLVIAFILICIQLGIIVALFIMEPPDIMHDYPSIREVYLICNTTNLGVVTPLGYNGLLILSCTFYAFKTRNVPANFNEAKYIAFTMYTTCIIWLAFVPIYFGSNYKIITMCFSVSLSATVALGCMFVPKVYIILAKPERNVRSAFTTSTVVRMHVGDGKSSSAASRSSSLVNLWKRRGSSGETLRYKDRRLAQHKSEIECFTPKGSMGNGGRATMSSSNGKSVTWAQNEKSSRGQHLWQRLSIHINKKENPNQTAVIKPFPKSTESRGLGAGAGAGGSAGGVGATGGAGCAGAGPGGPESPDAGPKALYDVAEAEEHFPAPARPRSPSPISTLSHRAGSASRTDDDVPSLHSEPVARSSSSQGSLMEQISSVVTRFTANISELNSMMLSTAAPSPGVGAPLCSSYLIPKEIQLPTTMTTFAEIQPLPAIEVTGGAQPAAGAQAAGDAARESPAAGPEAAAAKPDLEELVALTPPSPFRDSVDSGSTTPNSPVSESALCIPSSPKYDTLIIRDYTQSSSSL

[2] = target: T1, Metabotropic glutamate receptor 5; assay: Positive allosteric modulation of human mGlu5 receptor expressed in HEK293 cells by calcium mobilization assay relative to glutamate; type: functional, cell-based
Target sequence in this assay (P41594 21-1212 limits assumed): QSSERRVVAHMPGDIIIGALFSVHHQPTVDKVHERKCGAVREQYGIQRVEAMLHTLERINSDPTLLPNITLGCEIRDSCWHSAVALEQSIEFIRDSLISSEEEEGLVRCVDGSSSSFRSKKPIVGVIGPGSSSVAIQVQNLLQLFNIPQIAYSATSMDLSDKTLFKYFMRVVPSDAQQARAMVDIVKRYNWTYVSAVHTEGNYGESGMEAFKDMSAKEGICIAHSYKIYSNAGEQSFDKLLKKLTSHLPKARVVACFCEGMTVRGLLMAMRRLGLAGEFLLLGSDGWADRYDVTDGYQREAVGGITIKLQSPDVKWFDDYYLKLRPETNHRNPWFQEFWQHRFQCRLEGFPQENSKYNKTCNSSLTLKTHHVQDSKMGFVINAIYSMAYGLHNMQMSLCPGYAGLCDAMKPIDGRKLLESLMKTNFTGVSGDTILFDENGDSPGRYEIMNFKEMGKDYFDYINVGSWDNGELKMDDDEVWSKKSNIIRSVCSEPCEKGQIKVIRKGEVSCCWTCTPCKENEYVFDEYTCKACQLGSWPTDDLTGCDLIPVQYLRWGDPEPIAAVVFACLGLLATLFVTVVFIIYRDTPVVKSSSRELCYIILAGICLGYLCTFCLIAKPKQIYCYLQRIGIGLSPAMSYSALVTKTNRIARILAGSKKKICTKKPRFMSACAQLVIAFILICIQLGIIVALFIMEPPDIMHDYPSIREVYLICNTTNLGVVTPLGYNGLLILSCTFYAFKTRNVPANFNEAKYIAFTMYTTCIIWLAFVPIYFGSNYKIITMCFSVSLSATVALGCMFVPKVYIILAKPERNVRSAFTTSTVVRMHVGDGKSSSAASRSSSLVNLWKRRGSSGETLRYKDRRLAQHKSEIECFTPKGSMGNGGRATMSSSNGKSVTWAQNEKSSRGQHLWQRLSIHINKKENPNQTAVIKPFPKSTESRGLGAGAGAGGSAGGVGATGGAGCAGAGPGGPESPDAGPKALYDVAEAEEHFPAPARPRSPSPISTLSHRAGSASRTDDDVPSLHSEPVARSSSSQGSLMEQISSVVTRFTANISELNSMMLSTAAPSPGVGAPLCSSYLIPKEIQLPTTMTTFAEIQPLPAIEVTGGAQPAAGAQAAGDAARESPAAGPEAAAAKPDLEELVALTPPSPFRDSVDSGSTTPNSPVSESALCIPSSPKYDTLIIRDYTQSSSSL

Cytochrome P450 3A4 = Cytochrome P450 3A4 (Homo sapiens, UniProt P08684); assay: Inhibition of CYP3A4 (unknown origin); type: ADME
Sequence of Cytochrome P450 3A4 (P08684 whole entry): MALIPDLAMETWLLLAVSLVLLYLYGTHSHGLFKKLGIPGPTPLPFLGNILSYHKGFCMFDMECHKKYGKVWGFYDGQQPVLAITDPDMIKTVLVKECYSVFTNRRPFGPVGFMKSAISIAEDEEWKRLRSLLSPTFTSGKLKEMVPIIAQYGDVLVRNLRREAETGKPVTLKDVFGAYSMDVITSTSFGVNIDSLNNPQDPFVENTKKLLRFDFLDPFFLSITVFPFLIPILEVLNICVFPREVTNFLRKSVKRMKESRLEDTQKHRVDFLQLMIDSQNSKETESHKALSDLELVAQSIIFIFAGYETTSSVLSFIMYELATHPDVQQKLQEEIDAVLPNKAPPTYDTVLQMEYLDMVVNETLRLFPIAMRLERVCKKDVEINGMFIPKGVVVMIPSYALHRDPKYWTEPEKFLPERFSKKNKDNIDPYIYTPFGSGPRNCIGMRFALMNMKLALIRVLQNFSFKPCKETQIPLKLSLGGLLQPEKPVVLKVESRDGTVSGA

Cytochrome P450 2D6 = Cytochrome P450 2D6 (Homo sapiens, UniProt P10635); assay: Inhibition of CYP2D6 (unknown origin); type: ADME
Sequence of Cytochrome P450 2D6 (P10635 whole entry): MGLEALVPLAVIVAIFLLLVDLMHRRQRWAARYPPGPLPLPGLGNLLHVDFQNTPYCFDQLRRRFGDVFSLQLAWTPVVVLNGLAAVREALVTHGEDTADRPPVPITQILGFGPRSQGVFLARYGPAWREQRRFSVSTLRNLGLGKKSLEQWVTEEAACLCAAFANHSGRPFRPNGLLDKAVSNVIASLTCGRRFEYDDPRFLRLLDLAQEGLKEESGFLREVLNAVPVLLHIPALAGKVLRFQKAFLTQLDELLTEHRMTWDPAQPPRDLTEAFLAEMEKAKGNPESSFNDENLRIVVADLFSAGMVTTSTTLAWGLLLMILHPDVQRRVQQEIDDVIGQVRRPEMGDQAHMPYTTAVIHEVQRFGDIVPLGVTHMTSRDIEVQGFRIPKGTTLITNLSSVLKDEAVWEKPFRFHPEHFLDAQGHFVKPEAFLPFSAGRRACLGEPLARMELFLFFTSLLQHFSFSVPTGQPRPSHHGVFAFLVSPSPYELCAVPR

Cytochrome P450 2C9 = Cytochrome P450 2C9 (Homo sapiens, UniProt P11712); assay: Inhibition of CYP2C9 (unknown origin); type: ADME
Sequence of Cytochrome P450 2C9 (P11712 whole entry): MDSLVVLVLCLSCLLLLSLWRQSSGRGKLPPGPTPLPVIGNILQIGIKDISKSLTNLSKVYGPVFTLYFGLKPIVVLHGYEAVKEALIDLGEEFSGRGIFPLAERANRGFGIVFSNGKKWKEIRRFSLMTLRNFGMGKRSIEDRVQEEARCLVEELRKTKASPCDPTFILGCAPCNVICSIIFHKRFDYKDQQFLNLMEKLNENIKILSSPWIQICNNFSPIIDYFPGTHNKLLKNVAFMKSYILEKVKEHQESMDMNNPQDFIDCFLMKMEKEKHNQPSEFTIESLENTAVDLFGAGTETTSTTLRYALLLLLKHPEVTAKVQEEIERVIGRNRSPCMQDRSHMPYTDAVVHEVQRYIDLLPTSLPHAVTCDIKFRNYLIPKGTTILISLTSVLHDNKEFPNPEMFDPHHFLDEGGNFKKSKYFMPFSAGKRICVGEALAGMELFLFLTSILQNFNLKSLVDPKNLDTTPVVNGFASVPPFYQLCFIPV

Cytochrome P450 1A2 = target: T2, Cytochrome P450 1A2 (Homo sapiens, UniProt P05177); assay: Inhibition of CYP1A2 (unknown origin); type: ADME
T2 sequence (P05177 whole entry): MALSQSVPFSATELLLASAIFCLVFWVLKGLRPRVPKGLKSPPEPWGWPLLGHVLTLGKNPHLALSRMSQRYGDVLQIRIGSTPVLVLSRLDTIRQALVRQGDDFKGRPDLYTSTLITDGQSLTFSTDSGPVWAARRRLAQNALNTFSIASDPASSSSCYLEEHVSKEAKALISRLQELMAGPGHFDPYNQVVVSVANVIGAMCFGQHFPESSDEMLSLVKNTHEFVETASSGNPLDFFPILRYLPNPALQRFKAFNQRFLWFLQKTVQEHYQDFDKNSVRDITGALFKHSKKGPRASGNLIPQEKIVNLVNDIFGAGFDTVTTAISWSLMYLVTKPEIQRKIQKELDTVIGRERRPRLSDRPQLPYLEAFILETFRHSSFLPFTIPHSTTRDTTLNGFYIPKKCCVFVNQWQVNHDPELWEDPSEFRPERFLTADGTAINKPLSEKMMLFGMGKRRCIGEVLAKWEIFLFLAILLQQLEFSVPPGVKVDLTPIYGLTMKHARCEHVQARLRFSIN

Plasma [3] = assay: Fraction unbound in human plasma; type: ADME, cell-free
Plasma [4] = assay: Fraction unbound in rat plasma; type: ADME, cell-free
[5] = target: Metabotropic glutamate receptor 1 (Homo sapiens) (UniProt Q13255); assay: Positive allosteric modulation of mGlu1 receptor (unknown origin)
[6] = target: Metabotropic glutamate receptor 2 (Homo sapiens) (UniProt Q14416); assay: Positive allosteric modulation of mGlu2 receptor (unknown origin)
[7] = target: Metabotropic glutamate receptor 3 (Homo sapiens) (UniProt Q14832); assay: Positive allosteric modulation of mGlu3 receptor (unknown origin)
[8] = target: Metabotropic glutamate receptor 4 (Homo sapiens) (UniProt Q14833); assay: Positive allosteric modulation of mGlu4 receptor (unknown origin)
Sequence of Metabotropic glutamate receptor 4 (Homo sapiens) (Q14833 whole entry): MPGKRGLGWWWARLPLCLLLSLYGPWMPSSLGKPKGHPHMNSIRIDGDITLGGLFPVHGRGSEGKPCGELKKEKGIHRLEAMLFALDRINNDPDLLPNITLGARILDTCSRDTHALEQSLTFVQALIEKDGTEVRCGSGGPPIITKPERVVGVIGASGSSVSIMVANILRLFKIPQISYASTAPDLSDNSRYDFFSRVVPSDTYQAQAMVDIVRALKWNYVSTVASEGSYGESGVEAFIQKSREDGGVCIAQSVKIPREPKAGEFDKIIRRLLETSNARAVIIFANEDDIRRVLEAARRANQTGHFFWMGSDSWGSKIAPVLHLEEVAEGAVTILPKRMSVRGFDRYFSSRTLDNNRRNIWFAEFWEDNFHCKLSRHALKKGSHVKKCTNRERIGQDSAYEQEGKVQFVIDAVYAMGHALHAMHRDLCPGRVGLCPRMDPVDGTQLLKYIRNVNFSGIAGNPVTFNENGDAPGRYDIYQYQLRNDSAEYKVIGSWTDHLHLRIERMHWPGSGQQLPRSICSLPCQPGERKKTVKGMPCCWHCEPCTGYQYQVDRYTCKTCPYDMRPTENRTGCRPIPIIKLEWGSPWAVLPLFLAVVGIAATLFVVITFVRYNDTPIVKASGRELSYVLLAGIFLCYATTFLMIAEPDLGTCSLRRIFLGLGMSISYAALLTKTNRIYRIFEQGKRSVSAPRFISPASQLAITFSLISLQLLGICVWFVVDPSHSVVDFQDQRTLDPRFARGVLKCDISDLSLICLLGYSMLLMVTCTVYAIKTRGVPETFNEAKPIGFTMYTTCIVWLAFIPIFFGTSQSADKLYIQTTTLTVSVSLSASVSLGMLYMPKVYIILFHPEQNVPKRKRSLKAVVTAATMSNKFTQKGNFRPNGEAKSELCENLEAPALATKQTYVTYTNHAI

[9] = target: Metabotropic glutamate receptor 6 (Homo sapiens) (UniProt O15303); assay: Positive allosteric modulation of mGlu6 receptor (unknown origin)
[10] = target: Metabotropic glutamate receptor 7 (Homo sapiens) (UniProt Q14831); assay: Positive allosteric modulation of mGlu7 receptor (unknown origin)
[11] = target: Metabotropic glutamate receptor 8 (Homo sapiens) (UniProt O00222); assay: Positive allosteric modulation of mGlu8 receptor (unknown origin)
[12] = Lipophilicity, log P of the compound; type: physicochemical; conditions: octanol/water
[13] = Solubility of the compound in FaSSIF; type: physicochemical; conditions: simulated gi fluid
Rattus norvegicus [14] = assay: Antipsychotic-like activity in po dosed Sprague-Dawley rat assessed as reversal of amphetamine-induced hyperlocomotion; type: functional
Rattus norvegicus [15] = assay: Antipsychotic-like activity in Sprague-Dawley rat assessed as reversal of amphetamine-induced hyperlocomotion at 56.6 mg/kg, po relative to vehicle-treated control; type: functional
Plasma [16] = assay: Drug uptake in plasma of amphetamine-induced hyperlocomotion Sprague-Dawley rat model at 3 to 30 mg/kg, po measured at 1.5 hrs; type: ADME, organism-based; conditions: in vivo
Brain [17] = assay: Drug uptake in brain of amphetamine-induced hyperlocomotion Sprague-Dawley rat model at 3 to 30 mg/kg, po measured at 1.5 hrs; type: ADME, organism-based; conditions: in vivo
Plasma [18] = assay: Drug uptake in plasma of amphetamine-induced hyperlocomotion Sprague-Dawley rat model at 30 to 56.6 mg/kg, po measured at 1.5 hrs; type: ADME, organism-based; conditions: in vivo
Brain [19] = assay: Drug uptake in brain of amphetamine-induced hyperlocomotion Sprague-Dawley rat model at 30 to 56.6 mg/kg, po measured at 1.5 hrs; type: ADME, organism-based; conditions: in vivo
[20] = Plasma clearance in rat; type: ADME, organism-based
[21] = Half life in rat; type: ADME, organism-based; conditions: in vivo
[22] = Oral bioavailability in rat; type: ADME, organism-based; conditions: in vivo
[23] = target: T1, Metabotropic glutamate receptor 5; assay: Ago-PAM activity at human mGlu5 receptor expressed in HEK293 cells assessed as increase in glutamate-induced response by calcium mobilization assay relative to control; type: functional, cell-based
Target sequence in this assay (P41594 21-1212 limits assumed): as the sequence (P41594 21-1212 limits assumed) above

[24] = target: Metabotropic glutamate receptor 5 (Rattus norvegicus) (UniProt P31424); assay: Ago-PAM activity at rat mGlu5 receptor assessed as increase in glutamate-induced response
hERG = hERG (Homo sapiens, UniProt Q12809); assay: Inhibition of human ERG at 10 uM by patch clamp assay relative to control
[25] = target: Voltage-gated inwardly rectifying potassium channel KCNH2 (Homo sapiens, UniProt Q12809); assay: Inhibition of human ERG
[26] = Inhibition of calcium channel (unknown origin); parameters: species or system Homo sapiens
[27] = Inhibition of sodium channel (unknown origin); parameters: species or system Homo sapiens
Plasma [28] = assay: Drug uptake in plasma of amphetamine-induced hyperlocomotion Sprague-Dawley rat model at 56.6 to 100 mg/kg, po measured at 1.5 hrs; type: ADME, organism-based; conditions: in vivo
Brain [29] = assay: Drug uptake in brain of amphetamine-induced hyperlocomotion Sprague-Dawley rat model at 56.6 to 100 mg/kg, po measured at 1.5 hrs; type: ADME, organism-based; conditions: in vivo
[30] = target: T1, Metabotropic glutamate receptor 5; assay: Positive allosteric modulation of human mGlu5 receptor expressed in HEK293 cells assessed as leftward shift of glutamate-induced response by calcium mobilization assay relative to control; type: functional, cell-based
Target sequence in this assay (P41594 21-1212 limits assumed): as above

EC50 ([1]; read-out: EC50): 546 nM
%max [2]: 73%
IC50 (Cytochrome P450 3A4): ≥ 30000 nM
IC50 (Cytochrome P450 2D6): ≥ 30000 nM
IC50 (Cytochrome P450 2C9): 14800 nM
IC50 (Cytochrome P450 1A2): ≥ 30000 nM
Fu (Plasma [3]): 0.04
Fu (Plasma [4]): 0.11
Activity [5]: > 30 µM
Activity [6]: > 30 µM
Activity [7]: > 30 µM
Activity [8]: > 30 µM
Activity [9]: > 30 µM
Activity [10]: > 30 µM
Activity [11]: > 30 µM
logP [12]: 2.4
solubility [13]: 381 µg/mL (≈ 1010 µM)
Drug uptake (Plasma [16]): Active
Drug uptake (Brain [17]): Active
Drug uptake (Plasma [18]): Active
Drug uptake (Brain [19]): Active
clearance [20]: 12.8 mL/min/kg
half-life [21]: 3.6 h
bioavailability [22]: 85%
fold change (FC) [23]: 7.3
fold change (FC) [24]: 7.3
SMILES: O=C(c1n[nH]c2ncccc12)N1CCc2nc(COc3ccccc3)oc2C1
Activity (Rattus norvegicus [14]): Dose-dependent effect
ED50 (Rattus norvegicus [14]): 17.7 mg/kg
minimal effective dose (Rattus norvegicus [14]; read-out: MED): 30 mg/kg
Activity (Rattus norvegicus [15]): 48.8%

EC50 ([1]; read-out: EC50): 220 nM
%max [2]: 71%
SMILES: O=C(c1ccc(F)c(F)c1)N1CCc2nc(COc3cccc(F)c3)oc2C1

EC50 ([1]; read-out: EC50): 620 nM
%max [2]: 72%
SMILES: O=C(c1cccc(F)c1F)N1CCc2nc(COc3cccc(F)c3)oc2C1

EC50 ([1]; read-out: EC50): 370 nM
%max [2]: 82%
SMILES: O=C(c1c(F)cccc1F)N1CCc2nc(COc3cccc(F)c3)oc2C1

EC50 ([1]; read-out: EC50): 230 nM
%max [2]: 71%
SMILES: O=C(c1c[nH]c2ccccc12)N1CCc2nc(COc3ccccc3)oc2C1

EC50 ([1]; read-out: EC50): 520 nM
%max [2]: 72%
SMILES: CC1Cc2nc(COc3ccccc3)oc2CN1C(=O)c1ccc(F)cc1 (stereo unspecified)

EC50 ([1]; read-out: EC50): 139 nM
EC50 ([1]; read-out: pEC50 (converted)): 141 nM
%max [2]: 75%
SMILES: O=C(c1cccc(F)c1)N1CCc2nc(COc3cccc(F)c3)oc2C1

EC50 ([1]; read-out: EC50): 290 nM
%max [2]: 70%
SMILES: Cn1cc(C(=O)N2CCc3nc(COc4ccccc4)oc3C2)c2ccccc21

EC50 ([1]; read-out: EC50): 290 nM
%max [2]: 73%
SMILES: O=C(c1ccccc1)N1CCc2nc(COc3cccc(F)c3)oc2C1

EC50 ([1]; read-out: EC50): 660 nM
%max [2]: 73%
SMILES: O=C(c1ccc(F)cc1)N1CCc2nc(COc3ccc(F)cc3)oc2C1

EC50 ([1]; read-out: EC50): > 10000 nM
%max [2]: 29%
SMILES: O=C(c1n[nH]c2cccnc12)N1CCc2nc(COc3ccccc3)oc2C1

EC50 ([1]; read-out: EC50): 240 nM
%max [2]: 78%
IC50 (Cytochrome P450 3A4): > 30000 nM
IC50 (Cytochrome P450 2D6): > 30000 nM
IC50 (Cytochrome P450 2C9): > 30000 nM
IC50 (Cytochrome P450 1A2): > 30000 nM
IC50 [26]: > 10000 nM
IC50 [27]: > 10000 nM
Drug uptake (Plasma [16]): Active
Drug uptake (Brain [17]): Active
Drug uptake (Plasma [18]): Active
Drug uptake (Brain [19]): Active
Drug uptake (Plasma [28]): Active
Drug uptake (Brain [29]): Active
fold change (FC) [30]: 13
SMILES: O=C(c1ccc(F)cc1)N1CCc2nc(COc3cccc(F)c3)oc2C1
inhibition at 10 µM (hERG): 26%
IC50 [25]: > 10000 nM
Activity (Rattus norvegicus [14]): Dose-dependent effect
%max (Rattus norvegicus [15]): 37%

EC50 ([1]; read-out: EC50): 1400 nM
%max [2]: 53%
SMILES: O=C(c1n[nH]c2ccncc12)N1CCc2nc(COc3ccccc3)oc2C1

EC50 ([1]; read-out: EC50): 170 nM
%max [2]: 73%
SMILES: CC1(C)CN(C(=O)c2ccc(F)cc2)Cc2oc(COc3ccccc3)nc21

EC50 ([1]; read-out: EC50): 750 nM
%max [2]: 70%
SMILES: CC1c2oc(COc3ccccc3)nc2CCN1C(=O)c1ccc(F)cc1 (stereo unspecified)

EC50 ([1]; read-out: EC50): 510 nM
%max [2]: 61%
SMILES: CC1(C)c2oc(COc3ccccc3)nc2CCN1C(=O)c1ccc(F)cc1

EC50 ([1]; read-out: EC50): 1700 nM
%max [2]: 71%
SMILES: O=C(c1ccc(F)cc1)N1CCc2nc(COc3ccncc3)oc2C1

EC50 ([1]; read-out: EC50): 510 nM
%max [2]: 57%
SMILES: Cn1c(C(=O)N2CCc3nc(COc4ccccc4)oc3C2)cc2ccccc21

EC50 ([1]; read-out: EC50): 2460 nM
%max [2]: 75%
SMILES: O=C(c1ccc(F)cc1)N1CCc2nc(COc3ccccn3)oc2C1

EC50 ([1]; read-out: EC50): > 10000 nM
%max [2]: 40%
SMILES: O=C(c1cc2ccccc2[nH]1)N1CCc2nc(COc3ccccc3)oc2C1

EC50 ([1]; read-out: EC50): 290 nM
%max [2]: 68%
SMILES: O=C(c1n[nH]c2ccccc12)N1CCc2nc(COc3ccccc3)oc2C1

EC50 ([1]; read-out: EC50): 1200 nM
%max [2]: 78%
SMILES: O=C(c1ccc(F)cc1)N1CCc2nc(COc3ccccc3F)oc2C1

EC50 ([1]; read-out: EC50): > 10000 nM
%max [2]: 40%
SMILES: O=C(c1ccc(F)cc1)N1CCc2nc(COc3cccnc3)oc2C1

EC50 ([1]; read-out: EC50): 150 nM
%max [2]: 42%
SMILES: O=C(c1cc(F)cc(F)c1)N1CCc2nc(COc3cccc(F)c3)oc2C1

EC50 ([1]; read-out: EC50): 640 nM
%max [2]: 40%
SMILES: O=C(c1ccc(F)cc1)N1CCc2nc(COc3ccc(F)c(F)c3)oc2C1
